The values that follow come from patent US10995070B2, “Acetyl-CoA carboxylase modulators” (Monsanto Technology LLC, priority 2013, dated 2021).

In assay [1] the target is Ustilago maydis acetyl CoA carboxylase (ACCase) (Ustilago maydis, UniProt A0A0D1DYD5). The assay is described as follows: ACCase enzymatic assay (coupled PK/LDH, NADH OD340). Particulars: read-out: ACCase Inhibitory Activity IC50. The format is biochemical. On the procedure:
Ustilago maydis acetyl CoA carboxylase (ACCase) was cloned, expressed, and purified as described (Weatherly et al, Biochem. J., 2004) and the test compounds were tested in a 96-well plate format. Primary in vitro screening consisted of obtaining dose response data at 100, 33, 10, and 1 μM inhibitor. Actives in the primary screen were re-tested to establish IC50 values.
Direct detection of the conversion of acetyl CoA to malonyl CoA by ACCase was not feasible, but during this process ATP is converted to ADP which allowed for detection through a standard reaction coupling with ADP recycling to the oxidation of NADH. Thus, ACCase activity was measured via kinetic OD340 measurements of the conversion of NADH to NAD in a coupled reaction involving the conversion of phosphoenolpyruvate (PEP) to lactate.
The complete 200 ul reaction mixture contained 52.5 mM HEPES (pH8), 2.625 mM MgCl2, 1 mM ATP, 0.525 mM DTT, 11 mM NaHCO3, 1% DMSO with or without inhibitor, 1× pyruvate kinase/lactate dehydrogenase (PK/LDH), 0.3 mM NADH, 0.5 mM PEP, and 5 μg ACCase. The reactions were incubated at 30° C. for 10 minutes and then initiated by the addition of 0.33 mM acetyl CoA. The initiated reactions were read immediately via plate reader at OD340 and kinetic readings were acquired every 20 s for 15 minutes while keeping the temperature at 30° C.
A slope of the kinetic curve was determined by using the 2 to 7 minute data which was then calculated as percent inhibition relative to the no inhibitor control.
The primary screens were conducted in duplicate and the IC50's conducted in triplicate. Averages were reported along with standard deviation calculation to generate error bars.
Each plate contained its own controls and consisted of a DMSO only control, 5-fold titration series of soraphen from 2 μM to 3.2 nM, and an ADP coupled reaction control. […]
A slope of the kinetic curve was determined by using the 2 to 7 minute data which was then calculated as percent inhibition relative to the no inhibitor control. Those compounds which had no significant PK/LDH inhibition at or above the IC50 in the ACCase assay, were considered to be valid modulators of only ACCase.

The next assay has as its system Diplodia maydis. The assay is described as follows: Fungal growth inhibition assay, D. maydis. Type of assay: cell-based. To be noted: 48 h. On the procedure:
(§1) Spores were isolated from previously sub-cultured plates of Botrytis cinerea, Phytophthora capsici, Fusarium moniliforme, Fusarium viguliforme, Collectotrichum graminicola, and Diplodia maydis. All spores were filtered and collected in a sterile glass bowl to isolate the spores from the mycelia. The isolation and sub-culture plate condition for each pathogen is described below.
Spore isolation for D. maydis: A 3-4 week old PDA (pre-mix) plate was removed from 26° C. incubator with a light/dark 12 hour cycle and the mycelia were treated with 6-7 ml of sterile distilled water, scraped into a sterile petri dish, and smashed to open the pycnidia. The spores were then collected in a sterile filter bowl containing a fluted piece of filter paper and poured into a conical tube.
(§2) After spore isolation, pathogen spores were counted on a hemocytometer to calculate the spores/ml. In 17% V8 liquid media containing 3 g/L CaCO3, isolated spores were diluted to individual concentrations based on the growth curves at 48 hours of each pathogen. The spore concentrations for each pathogen were as follows: B. cinerea—10,000 sp/ml; P. capsici—300 sp/ml; F. monliforme—500 sp/ml; F. virguliforme—500 sp/ml; C. graminicola—3,000 sp/ml; and D. maydis—3,000 sp/ml.
(§3) Chemistry stocks were dissolved in DMSO at 2.5 mg/ml. Chemistry was diluted in a 96-well stock plate in five-fold dilutions to obtain a final concentration of 50, 10, and 2 ppm in vitro. The final concentration of the positive control after the five-fold dilutions was as follows: soraphen—0.5, 0.1, and 0.02 ppm. Negative controls on each plate included 2% DMSO, water containing spores and media, and a blank for background subtraction.
(§4) In a 96-well plate the spore solution, chemistries, and controls were combined to make the final solution concentrations mentioned above. Upon addition of the chemistry, an OD600 reading was done to assess chemical precipitation. The 96-well plates were incubated in plastic tubs containing wet paper towels under the following conditions, 25° C. in the dark for P. capsici and B. cinerea or 26° C. with light/dark cycle for C. graminicola, D. maydis, F. virguliforme, F. monliforme. Plate readings were repeated at 24 and 48 hrs. Visual ratings were performed at 24 and 48 hrs to check for precipitation and confirm efficacy. Visual and OD600 ratings of the chemistry at 48 hours were compared to the 2% DMSO control to determine the percent of pathogen growth inhibition.

Assay [2] relates to Collectotrichum graminicola. The assay is described as follows: Fungal growth inhibition assay, C. graminicola. The format is cell-based. Particulars: Colletotrichum graminicola, 48 h. The protocol:
as §1
Spore isolation for C. graminicola: A 1-2 week old oatmeal agar (pre-mix) plate was removed from 26° C. incubator with a light/dark 12 hour cycle and the mycelia were treated with 10-15 ml of filter sterilized distilled water. The mycelia were scraped to re-suspend the spores. The spores were then collected in a sterile filter bowl containing a piece of sterile cheesecloth and poured into a conical tube.
as §2, §3, §4

The next assay relates to Fusarium virguliforme. Put plainly: Fungal growth inhibition assay, F. virguliforme. Type of assay: cell-based. Particulars: 48 h. The protocol: as §1
Spore isolation for F. virguliforme: A 2-3 week old PDA (pre-mix) plate containing cefotaxime (100 mg/L) and kanamycin (50 mg/L) was removed from 26° C. incubator with a light/dark 12 hour cycle and the mycelia were treated with 5-10 ml of filter sterilized distilled water. The mycelia were scraped to re-suspend the spores. The spores were then collected in a sterile filter bowl containing a fluted piece of filter paper and poured into a conical tube.
as §2, §3, §4

Another assay deals with Saccharomyces cerevisiae. The assay is described as follows: Yeast growth inhibition assay. Type of assay: cell-based. To be noted: read-out: S. cerevisiae % growth inhibition. On the procedure: Yeast cells (Ade2 strain) were grown in liquid YPD (1% yeast extract, 2% peptone, 2% dextrose) for 16 hours at 30° C. from previously sub-cultured plates of Saccharomyces cerevisiae. The OD600 of the overnight culture was checked via spectrophotometer and diluted to a concentration of 2×10^4 cells/ml.
Chemistry stocks were dissolved in DMSO to a concentration of 10 mM. Chemistry stocks were further diluted in a 96-well stock plate to obtain final concentrations of […] in 1% DMSO. The final concentrations of the soraphen positive control were 400, 40, and 3.2 nM. The negative controls on each plate included a background subtraction control containing yeast and 1% DMSO (without chemistry) and a second contamination control containing YPD (with no yeast) and 1% DMSO (without chemistry).
98 μl liquid YPD was added to 2 μl diluted stock of DMSO per well and mixed thoroughly. After mixing, 100 μl of the diluted yeast solution was added to bring the final yeast concentration to 1×10^4 cells/ml or 2000 cells per well. An initial spectrophotometric reading at OD600 was conducted on the entire plate and served as the 0 hours time point used to subtract any background. […] […] […] All experiments were conducted in triplicate. Averages were reported along with standard deviation calculation to generate error bars. Each plate contained its own controls and consisted of inoculated+DMSO, non-inoculated+DMSO, and a titration series of soraphen at 400, 40, and 3.2 nM.

Ustilago maydis acetyl CoA carboxylase (ACCase), sequence (A0A0D1DYD5 1-2185): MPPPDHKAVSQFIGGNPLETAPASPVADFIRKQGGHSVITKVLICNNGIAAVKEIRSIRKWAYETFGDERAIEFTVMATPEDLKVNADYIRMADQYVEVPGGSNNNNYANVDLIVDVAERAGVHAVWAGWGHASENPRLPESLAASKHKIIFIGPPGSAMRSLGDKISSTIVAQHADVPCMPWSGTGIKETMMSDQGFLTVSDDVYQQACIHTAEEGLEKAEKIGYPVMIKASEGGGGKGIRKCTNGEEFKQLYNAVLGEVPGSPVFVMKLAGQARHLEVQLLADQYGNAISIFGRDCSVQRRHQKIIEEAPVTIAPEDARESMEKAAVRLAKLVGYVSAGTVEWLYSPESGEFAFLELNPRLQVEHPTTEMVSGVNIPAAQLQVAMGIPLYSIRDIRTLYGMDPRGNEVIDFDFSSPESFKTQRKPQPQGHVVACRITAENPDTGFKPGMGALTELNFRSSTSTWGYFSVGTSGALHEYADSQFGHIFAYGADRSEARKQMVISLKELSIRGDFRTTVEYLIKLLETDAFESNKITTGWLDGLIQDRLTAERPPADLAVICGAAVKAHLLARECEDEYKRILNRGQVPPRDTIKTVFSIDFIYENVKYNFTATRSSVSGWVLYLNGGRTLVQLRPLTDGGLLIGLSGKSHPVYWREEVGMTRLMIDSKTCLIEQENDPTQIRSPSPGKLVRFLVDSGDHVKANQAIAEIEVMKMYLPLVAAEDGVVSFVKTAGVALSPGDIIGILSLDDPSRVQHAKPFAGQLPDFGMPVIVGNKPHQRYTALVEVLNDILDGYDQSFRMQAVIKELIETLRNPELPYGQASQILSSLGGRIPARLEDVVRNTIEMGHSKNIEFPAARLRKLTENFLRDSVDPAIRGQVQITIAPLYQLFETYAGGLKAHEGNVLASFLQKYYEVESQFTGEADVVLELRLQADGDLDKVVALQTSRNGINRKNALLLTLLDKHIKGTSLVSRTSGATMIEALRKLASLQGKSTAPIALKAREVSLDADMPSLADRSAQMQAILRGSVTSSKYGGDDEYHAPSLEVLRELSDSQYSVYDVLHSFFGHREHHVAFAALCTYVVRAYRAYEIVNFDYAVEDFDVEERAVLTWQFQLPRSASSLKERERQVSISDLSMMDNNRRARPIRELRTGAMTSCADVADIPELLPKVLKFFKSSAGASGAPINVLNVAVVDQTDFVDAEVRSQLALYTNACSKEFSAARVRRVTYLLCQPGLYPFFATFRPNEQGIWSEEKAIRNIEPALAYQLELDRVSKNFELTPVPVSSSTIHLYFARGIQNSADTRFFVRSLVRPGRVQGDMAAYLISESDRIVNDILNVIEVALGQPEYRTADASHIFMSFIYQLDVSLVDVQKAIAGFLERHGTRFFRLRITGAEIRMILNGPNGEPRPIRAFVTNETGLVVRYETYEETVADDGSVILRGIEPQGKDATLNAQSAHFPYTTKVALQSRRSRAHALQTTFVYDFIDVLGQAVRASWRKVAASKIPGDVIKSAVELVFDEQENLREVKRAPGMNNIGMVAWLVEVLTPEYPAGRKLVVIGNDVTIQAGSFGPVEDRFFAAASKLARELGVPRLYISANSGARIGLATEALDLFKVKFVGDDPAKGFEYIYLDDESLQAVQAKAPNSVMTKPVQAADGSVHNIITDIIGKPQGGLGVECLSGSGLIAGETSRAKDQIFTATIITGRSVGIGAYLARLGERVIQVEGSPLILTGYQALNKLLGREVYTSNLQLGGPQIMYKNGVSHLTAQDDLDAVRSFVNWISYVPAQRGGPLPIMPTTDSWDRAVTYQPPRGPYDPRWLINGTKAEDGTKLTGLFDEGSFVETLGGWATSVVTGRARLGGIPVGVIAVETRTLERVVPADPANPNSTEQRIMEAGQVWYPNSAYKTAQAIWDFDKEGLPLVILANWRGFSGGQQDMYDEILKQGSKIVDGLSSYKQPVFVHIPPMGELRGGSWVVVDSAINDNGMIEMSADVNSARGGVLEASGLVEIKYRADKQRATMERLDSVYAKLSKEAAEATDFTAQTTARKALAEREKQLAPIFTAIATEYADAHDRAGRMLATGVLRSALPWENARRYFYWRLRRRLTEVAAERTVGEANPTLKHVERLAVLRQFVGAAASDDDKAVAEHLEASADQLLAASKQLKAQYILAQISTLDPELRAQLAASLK

Usually IC50 stands for the concentration that inhibits the measured activity by half. As for `COc1ccc2c(-c3ccccc3)cc(SC(C)C(N)=O)nc2c1` (centres unmarked) [Formula III-i, 2-((7-methoxy-4-phenylquinolin-2-yl)thio)propanamide], the half-inhibitory concentration (IC50) in assay [1] was 8.8 µM.
The inhibition is the change of the read-out against control, counted positive when it falls. On to `COC(=O)COc1ccc(-c2cc(-c3ccccc3)c3ccccc3n2)cc1` [Formula IIc-i, methyl 2-(4-(4-phenylquinolin-2-yl)phenoxy)acetate], for which, in the assay with Diplodia maydis, the inhibition at 2 ppm is 12% and the inhibition at 10 ppm was 44%.
On to `COC(=O)Cc1ccc(-c2cc(-c3ccccc3)c3ccccc3n2)s1` [Formula IId-i, methyl 2-(5-(4-phenylquinolin-2-yl)thiophen-2-yl)acetate], for which, in assay [1], the IC50 was determined as 12 µM. In addition, in assay [2], testing at 2 ppm gave an inhibition of 6%, the inhibition at 10 ppm amounted to 32% and the inhibition at 50 ppm came out at 79%. In the assay with Diplodia maydis, this molecule displayed an inhibition at 2 ppm of 16% and an inhibition at 10 ppm of 26%.
Consider `COC(=O)Cc1ccc(-c2nc3ccccc3c(-c3ccccc3)c2Cl)s1` [Formula IId-ii, methyl 2-(5-(3-chloro-4-phenylquinolin-2-yl)thiophen-2-yl)acetate], for which, in the assay on Diplodia maydis, the inhibition at 2 ppm is 26% and the inhibition at 10 ppm was found to be 30%. In the assay on Fusarium virguliforme, the inhibition at 2 ppm stood at 44% and at 10 ppm the inhibition was 34%.
In the case of `COc1ccc(-c2cc(-c3ccccc3)c3ccccc3n2)cc1` [Formula IV-i, 2-(4-methoxyphenyl)-4-phenylquinoline], the IC50 in assay [1] stood at 21.2 µM. For the same molecule, in assay [2], testing at 2 ppm gave an inhibition of 35% and the inhibition at 10 ppm is 22%. In the assay on Diplodia maydis, at 2 ppm the inhibition was 21% and 10 ppm produced 44% inhibition.
Turning to `COc1ccc(-c2cc(-c3ccccc3)c3ccccc3n2)cc1OC` [Formula IV-ii, 2-(3,4-dimethoxyphenyl)-4-phenylquinoline], the IC50 in assay [1] amounted to 7.82 µM. In assay [2], the inhibition at 2 ppm was 34% and the inhibition at 10 ppm amounted to 41%. Further, in the assay with Diplodia maydis, testing at 2 ppm gave an inhibition of 26% and the inhibition at 10 ppm is 34%.
As for `NC(=O)COc1ccc(-c2cc(-c3ccccc3)c3ccccc3n2)cc1` [Formula Ia-i, 2-(4-(4-phenylquinolin-2-yl)phenoxy)acetamide], the IC50 in assay [1] is 0.515 µM.
With `O=C(O)COc1ccc(-c2cc(-c3ccccc3)c3ccccc3n2)cc1` [Formula Ia-ii, 2-(4-(4-phenylquinolin-2-yl)phenoxy)acetic acid], the IC50 in assay [1] amounted to 0.165 µM.
On the same count and under the same terms, as for `COc1cccc2c(-c3ccccc3)cc(-c3ccc(OCC(N)=O)cc3)nc12` [Formula Ia-iii, 2-(4-(8-methoxy-4-phenylquinolin-2-yl)phenoxy)acetamide], the figure is 0.549 µM; as for `CCc1cccc2c(-c3ccccc3)cc(-c3ccc(OCC(N)=O)cc3)nc12` [Formula Ia-iv, 2-(4-(8-ethyl-4-phenylquinolin-2-yl)phenoxy)acetamide], 8.15 µM.
Regarding `O=C(COc1ccc(-c2cc(-c3ccccc3)c3cc(Cl)ccc3n2)cc1)NCCO` [Formula Ia-v, 2-(4-(6-chloro-4-phenylquinolin-2-yl)phenoxy)-N-(2-hydroxyethyl)acetamide], the IC50 in assay [1] came to 13 µM.
Take `NC(=O)Cc1ccc(-c2nc3ccccc3c(-c3ccccc3)c2Cl)s1` [Formula Ib-i, 2-(5-(3-chloro-4-phenylquinolin-2-yl)thiophen-2-yl)acetamide]: the IC50 in assay [1] worked out at 1.32 µM. In assay [2], this molecule registered an inhibition at 2 ppm of 44% and an inhibition at 10 ppm of 51%. Further, in the assay with Fusarium virguliforme, the inhibition at 2 ppm is 43% and 10 ppm produced 31% inhibition.
In the case of `NC(=O)Cc1ccc(-c2cc(-c3ccccc3)c3ccccc3n2)s1` [Formula Ib-iii, 2-(5-(4-phenylquinolin-2-yl)thiophen-2-yl)acetamide], the IC50 in assay [1] came to 8.18 µM. In assay [2], this molecule gave an inhibition at 2 ppm of 31%, an inhibition at 10 ppm of 98% and an inhibition at 50 ppm of 81%. In addition, in the assay with Saccharomyces cerevisiae (3.7 μM), the inhibition at 3.7 µM amounted to 0%. In the assay on Saccharomyces cerevisiae (11.1 μM), the inhibition at 11.1 µM worked out at 14%. Further, the inhibition at 33.3 µM in the assay on Saccharomyces cerevisiae (33.3 μM) is 57%. Further, in the assay on Saccharomyces cerevisiae (100 μM), the inhibition at 100 µM was 99%.
Regarding `COc1cccc2c(-c3ccccc3)cc(-c3ccc(CC(N)=O)s3)nc12` [Formula Ib-v, 2-(5-(8-methoxy-4-phenylquinolin-2-yl)thiophen-2-yl)acetamide], in assay [1], the IC50 was 4.21 µM.
With `CCc1cccc2c(-c3ccccc3)cc(-c3ccc(CC(N)=O)s3)nc12` [Formula Ib-vi, 2-(5-(8-ethyl-4-phenylquinolin-2-yl)thiophen-2-yl)acetamide], the 50% inhibitory concentration (IC50) in assay [1] worked out at 9.58 µM.
Turning to `CO[C@H]1CCCC[C@@H](c2ccccc2)OC(=O)[C@@H](C)[C@@]2(O)O[C@H]([C@@H](C)[C@H](O)[C@H]2OC)[C@@H](C)/C=C/[C@H]1OC` [Soraphen, reference compound], in assay [1], the half-maximal inhibitory concentration (IC50) came out at 0.0458 µM.
